Laboratory results: publication PMC9775322, “An Integrated Analysis of Mechanistic Insights into Biomolecular Interactions and Molecular Dynamics of Bio-Inspired Cu(II) and Zn(II) Complexes towards DNA/BSA/SARS-CoV-2 3CL^pro by Molecular Docking-Based Virtual Screening and FRET Detection” (Biomolecules, 2022)

How the values were obtained:
[1] = test system: Staphylococcus Aureus; experiment: Agar disc diffusion antibacterial test; conditions: for Inhibition % / diameter of clear zone inhibition: F, (+) Staphylococcus Aureus; for Inhibition %: (T–C)/T × 100; for diameter of clear zone inhibition: 20 µL of 100 µM on 6 mm disc, Control (DMSO) = 6 mm
[2] = test system: Escherichia coli; experiment: Agar disc diffusion antibacterial test; conditions: for Inhibition % / diameter of clear zone inhibition: A, (-) Escherichia coli; for Inhibition %: (T–C)/T × 100; for diameter of clear zone inhibition: 20 µL of 100 µM on 6 mm disc, Control (DMSO) = 6 mm
[3] = test system: CT-DNA; experiment: DNA cleavage by agarose gel electrophoresis in presence of H2O2; assay type: biochemical, calf; conditions: in the presence of H2O2, agarose gel
Excerpt: The DNA nuclease characteristics were scrutinized of all substances along with DNA containing H2O2 and Tris-HCl buffer solution with a pH of 7.4 [19]. The gel layer was discarded from the tank solution after the experiment was finished and put in front of a UV transilluminator, and each band lane was also scrutinized with the control (DNA + H2O2).
2.1. Resources and Techniques
We purchased the essential chemical substances and other reagents from Sigma Aldrich repository. Numerous analytical and spectral measurements were utilized to describe all the test compounds, including Bruker 300 MHz 1H NMR spectrometer, or Avance III HD Nanobay 400 MHz, Shimadzu FT-IR spectrometer, Shimadzu UV-Vis 1800, Varian E112 EPR spectrometer, Bruker Daltonics ESI-MS 3000 or Bruker Compact qTOFMS coupled to an LC system and (Varian Inc, USA, 410 proStar binary LC with 500 MS, IT, and PDA detectors, or Thermo Ultimate 3000 with PDA), Bruker AXS KAPPA APEX-2 or D8 ADVANCE diffractometers (SCXRD) and other analytical techniques. The further details were encapsulated in our previous reports.
2.2. DNA/BSA interaction studies
2.2.1. […]
After the completion of the experiment, the gel layer was taken out of the tank solution and exposed to a UV transilluminator. All band lanes were evaluated and compared to the control (DNA+H2O2) using bromophenol blue, […] is useful for visually analyzing the migrated band lanes for the degree of DNA cleavage. […]
By increasing the concentration of DNA (0 –50 μM), electronic absorption titrations were performed at the fixed concentration (50 μM) of all test compounds in aqueous media at room temperature. […] Using the molar extinction coefficient (6600 M −1 cm−1) at 260 nm, it was also possible to measure the DNA concentration per nucleotide and polynucleotide, denoting that the DNA was sufficiently free of protein by the ratio of absorbance at 260 and 280 nm of roughly 1.8 –1.9 [21, 22]. When raising the concentration of DNA in compound solution, up to the point of completely binding, the decrease in absorbance intensity was carefully observed.

[4] = molecular target: T1, BSA (Bos taurus, UniProt P02769); experiment: BSA binding by UV–vis absorption titration; design: species or system bovine; conditions: for Δλ (nm) (blue shift of BSA band at 278 nm) / Chromism (% H) (hyperchromism): BSA 25 μM, compound 0–25 μM; for Chromism (% H) (hyperchromism): 278 nm; for ΔGb°: −RT ln Kapp, T = 298 K; for Binding Constant Kapp by BH Method: BSA, UV–Vis titration
T1 construct: purchased Sigma Aldrich
T1 sequence (P02769 25-607): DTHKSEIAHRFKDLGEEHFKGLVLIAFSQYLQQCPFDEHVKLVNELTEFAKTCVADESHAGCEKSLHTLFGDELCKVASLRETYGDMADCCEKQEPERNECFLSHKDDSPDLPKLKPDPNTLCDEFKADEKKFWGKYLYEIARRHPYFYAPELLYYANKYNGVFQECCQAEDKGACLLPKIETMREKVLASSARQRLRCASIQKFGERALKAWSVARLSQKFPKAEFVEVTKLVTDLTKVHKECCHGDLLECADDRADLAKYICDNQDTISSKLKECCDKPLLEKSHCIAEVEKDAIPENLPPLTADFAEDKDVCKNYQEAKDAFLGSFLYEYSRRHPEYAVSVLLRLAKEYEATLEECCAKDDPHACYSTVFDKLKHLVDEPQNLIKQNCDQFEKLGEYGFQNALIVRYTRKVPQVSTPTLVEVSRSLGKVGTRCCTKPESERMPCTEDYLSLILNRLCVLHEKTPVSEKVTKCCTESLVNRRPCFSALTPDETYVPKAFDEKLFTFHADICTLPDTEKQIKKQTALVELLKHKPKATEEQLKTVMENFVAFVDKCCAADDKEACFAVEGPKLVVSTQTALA
Experimental: UV–vis spectral titrations were performed with a 25 μM concentration of BSA at room temperature with a 5 mM Tris-HCl/50 mM NaCl buffer solution (pH: 7.4). When the sample concentrations (0–25 μM) increased in the same BSA concentration solution, the alteration in the absorption band at 278 nm was continuously monitored.
2.2.8. UV-Vis absorption titrations for the BSA binding assay
The test compound concentrations (0 –25 μM) were varied during the electronic absorption titrations, which were conducted at a fixed BSA concentration (25 μM) in aqueous media (pH = 7.2) at 25 °C. The property of BSA is also confirmed by the observation of a strong absorption band in the UV region at 278 nm. […] The increment of the test compound causes a gradual increase in the BSA absorption band, which leads to the […]
owing to non-covalent interaction of the test compound with BSA [33].
∆Amax = (A∞ - A0), ∆A = (Ax - A0), A0 , Ax and A∞ are denoted as the absorbance of free BSA, the absorbance of BSA in the increment concentrations of the compound, and the absorbance value of the fully bound form of bovine serum albumin with substance, respectively.

[5] = test system: Candida albicans; experiment: Agar disc diffusion antifungal test; conditions: for Inhibition % / diameter of clear zone inhibition: I; for Inhibition %: (T–C)/T × 100; for diameter of clear zone inhibition: 20 µL of 100 µM on 6 mm disc, Control (DMSO) = 6 mm

| SMILES | Inhibition % [1] [%] | zone of inhibition at 100 µM ([1]; Staphylococcus aureus, read-out: diameter of clear zone inhibition) [mm] | Inhibition % [2] [%] | zone of inhibition at 100 µM ([2]; Escherichia coli, read-out: diameter of clear zone inhibition) [mm] | DNA cleavage (chemical nuclease activity) [3] | Δλ (nm) (blue shift of BSA band at 278 nm) [4] | Chromism (% H) (hyperchromism) [4] [%] | ΔGb° [4] [kJmol^−1] | Inhibition % [5] [%] | zone of inhibition at 100 µM ([5]; read-out: diameter of clear zone inhibition) [mm] | diameter of clear zone inhibition [1] [mm] | diameter of clear zone inhibition [2] [mm] | Binding Constant Kapp by BH Method [4] [M⁻¹] | diameter of clear zone inhibition [5] [mm] |
| --- | --- | --- | --- | --- | --- | --- | --- | --- | --- | --- | --- | --- | --- | --- |
| Oc1ccccc1N=Cc1ccc(N2CCOCC2)cc1 [(HL), 2-(4-morpholinobenzylideneamino)phenol] | 33 | 9 | 33 | 9 | No discernible DNA cleavage | 2 | 47.79 | −22.3387 | 40 | 10 | – | – | – | – |
| [Cu+2].[O-]c1ccccc1N=Cc1ccc(N2CCOCC2)cc1.[O-]c1ccccc1N=Cc1ccc(N2CCOCC2)cc1.c1cnc2c(c1)ccc1cccnc12 [(1b), [Cu^II(L)2(phen)]] | 45 | – | 33 | – | complete DNA cleavage | 8 | 64.70 | −25.9330 | 45 | – | 11 | 9 | 35140 | 11 |
| [O-]c1ccccc1N=Cc1ccc(N2CCOCC2)cc1.[O-]c1ccccc1N=Cc1ccc(N2CCOCC2)cc1.[Zn+2].c1cnc2c(c1)ccc1cccnc12 [(2b), [Zn^II(L)2(phen)]] | 45 | – | 40 | – | partially cleaves DNA | 8 | 62.16 | −24.7590 | 40 | – | 11 | 10 | 21878 | 10 |
